Measurements published in the kinase profiling compilation of Christmann-Franck et al. (2016).

Biological target: SGK1 (human) (UniProt O00141)
Test: Flashplate

Sequence of SGK1 (human) (O00141 whole entry, looked up): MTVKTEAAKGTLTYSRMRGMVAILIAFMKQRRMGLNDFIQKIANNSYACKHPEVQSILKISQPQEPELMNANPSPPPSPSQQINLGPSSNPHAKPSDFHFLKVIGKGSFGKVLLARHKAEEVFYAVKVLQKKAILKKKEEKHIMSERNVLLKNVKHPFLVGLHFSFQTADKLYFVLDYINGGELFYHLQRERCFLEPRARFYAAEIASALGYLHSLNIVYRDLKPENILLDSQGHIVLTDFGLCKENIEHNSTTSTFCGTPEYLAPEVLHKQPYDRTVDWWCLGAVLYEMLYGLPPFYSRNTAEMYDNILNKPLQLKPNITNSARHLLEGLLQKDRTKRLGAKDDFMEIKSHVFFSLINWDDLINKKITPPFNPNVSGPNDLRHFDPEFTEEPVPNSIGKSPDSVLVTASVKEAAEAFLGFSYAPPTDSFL

Structure (SMILES)	Ki
CC[C@@H]1C(=O)N(C)c2cnc(Nc3ccc(C(=O)NC4CCN(C)CC4)cc3OC)nc2N1C1CCCC1	> 10 µM
Cc1c[nH]c2nccc(Oc3c(F)cc(Nc4cc(Cl)nc(N)n4)cc3F)c12	0.251 µM
CN(C)c1cccc2c(S(=O)(=O)N(CCN)c3cncc(-c4ccc5cnccc5c4)c3)cccc12	3.98 µM
NC(=O)c1cc2c(-c3ccc(Br)c(F)c3F)cncc2s1	0.398 µM
O=C(Cc1ccccc1)Nc1cccc(-c2nc3sccn3c2-c2ccnc(Nc3cccc(N4CCCC4=O)c3)n2)c1	> 10 µM
CN1CC[C@@H](c2c(O)cc(O)c3c(=O)cc(-c4ccccc4Cl)oc23)[C@@H](O)C1	> 10 µM
COc1cccc([C@H](C)NC(=O)c2ccc(-c3ccncc3)c(C)c2)c1	0.316 µM
Cc1cccc(NC(=O)Nc2ccc(-c3cccc4c3CNC4=O)cc2)c1	> 10 µM
Nc1nonc1-n1nnc(C(=O)N/N=C/c2ccncc2)c1-c1ccccc1	> 10 µM
CSc1nn(-c2ccccn2)c(N)c1C(N)=O	6.31 µM
Oc1ccc(Nc2[nH]nc(-c3ccc(O)cc3)c2-c2ccc(O)cc2)cc1	0.1 µM
CCC(N)(C#Cc1cnc(N)c2c(-c3ccc(NC(=O)Nc4cccc(C)c4)cc3)csc12)CC	3.98 µM
NC1CCCCC1Nc1nccc(-c2c[nH]c3ncccc23)n1 (stereo unspecified)	1.58 µM
Cc1cccc(Cl)c1-c1cccc2c(CCCOc3cccc4ccccc34)c(C(=O)NCCOCCOCCN)[nH]c12	> 10 µM
Cc1cccc(NC(=O)Nc2ccc(-c3csc4c(C#CCCCCCCCCN)cnc(N)c34)cc2)c1	2 µM
O=C1/C(=N\Nc2cccc3c(=O)[nH][nH]c(=O)c23)C(c2ccccc2)=NN1c1ccccc1	> 10 µM
COCCn1cc(-c2ccncn2)c(-c2ccc(Cl)cc2)n1	> 10 µM
NCCCOc1cc2c(c(-c3ccc(Nc4nc5ccc(Cl)cc5o4)cc3)c1)CNC2=O	5.01 µM
O=C(Nc1cnccn1)Nc1ccnc2c(C(F)(F)F)cccc12	> 10 µM
O=c1[nH]c2cc(Cl)cc(Cl)c2c(-c2cc(Cl)ccc2O)c1O	> 10 µM
NC(=O)c1cccc2[nH]c(-c3ccc(NC(=O)c4cccc(S(=O)(=O)N5CCOCC5)c4)cc3)nc12	> 10 µM
CCc1cccc(NC(=O)Nc2ccc3c(c2)CCc2sc4ncnc(N)c4c2-3)c1	> 10 µM
CCOc1nc(C(=O)NCc2ccc(S(C)(=O)=O)cc2)cc(N)c1Cl	> 10 µM
Cc1ccc(NC(=O)Nc2ccc(-c3csc4ncnc(N)c34)cc2)cc1C	> 10 µM
OC1CCN(c2ncnc3[nH]cc(-c4ccccc4)c23)CC1	3.98 µM
Cc1ccc(NC(=O)Nc2ccc(-c3coc4ncnc(N)c34)cc2)cc1	> 10 µM

Structure (SMILES)	Ki
O=C1CCCc2oc3cc(C(F)(F)F)ccc3c(=O)c21	> 10 µM
N[C@H](COc1cncc(-c2cc3ccncc3s2)c1)Cc1c[nH]c2ccccc12	0.0501 µM
CSc1c[nH]c2ncnc(NCCCO)c12	> 10 µM
COc1ccc(NC(=O)Nc2ccc(-c3csc4c(-c5cnn(CC(C)(C)O)c5)cnc(N)c34)cc2)cc1	> 10 µM
Nc1ncnc2c1sc1ncnc(N)c12	0.158 µM
Cc1nc2c(sc3c(Br)ccc(Cl)c32)c(=O)o1	> 10 µM
OCCNc1cc2cc(-c3ccsc3)ccc2cn1	0.501 µM
CC(=O)Nc1cc(N)c(C#N)c(-c2ccsc2)n1	> 10 µM
N#Cc1ncc2nc1OCC(O)C(O)COc1ccc(Cl)cc1NC(=O)N2 (stereo unspecified)	> 10 µM
N#Cc1c(O)[nH]c(=O)c2c(=N)oc3ccc(Cl)cc3c12	> 10 µM
N#C/C(=C\c1ccc(O)c(O)c1)C(=O)NCc1ccccc1	> 10 µM
O=C(c1cc(-c2ccc3[nH]ncc3c2)on1)N1CCC[C@@H](O)C1	> 10 µM
COc1cc2c(cc1F)C(c1ccccc1Cl)=Nc1c(n[nH]c1C)N2	7.94 µM
COCCOCC#Cc1cc(-c2n[nH]c3c2C(=O)c2cc(CN4CCN(C)CC4)ccc2-3)cs1	> 10 µM
Cn1cc(-c2cnn3c(N)c(-c4ccc(NC(=O)Nc5cccc(C(F)(F)F)c5)cc4)cnc23)cn1	> 10 µM
NCCOc1cncc(/C=C/c2ccncc2)c1	> 10 µM
Nc1c(-c2ccc(NC(=O)Nc3cccc(C(F)(F)F)c3)cc2)ccc2nccnc12	> 10 µM
Cc1cccc(NC(=O)Nc2ccc(-c3csc4c(C#CCNS(C)(=O)=O)cnc(N)c34)cc2)c1	10 µM
CS(=O)(=O)NCCOc1cncc(-c2ccc3cnccc3c2)c1	3.98 µM
Cc1ccc(F)c(-c2ccc3nnc(N)n3c2)c1	> 10 µM
O=C(N[C@H](CO)Cc1ccccc1)c1ccc(-c2ccncc2)cc1	6.31 µM
CCOc1nc(NC(C)=O)cc(N)c1C#N	> 10 µM
CNC(=O)/C=C/c1cnc(N)c2c(-c3ccc4c(c3)OCO4)csc12	> 10 µM
COc1cccc([C@@H](C)NC(=O)c2ccc(-c3ccncc3C)cc2)c1	0.2 µM
N#Cc1ccc2[nH]c(O)c(-c3ccc(CN4CCOCC4)cn3)c2c1	3.16 µM

Next, values leading:

Ki	Structure (SMILES)
1 µM	Cc1cccc(NC(=O)Nc2ccc(-c3cccc4[nH]nc(N)c34)cc2)c1
2.51 µM	Cn1cc(/C=C2\C(=O)Nc3cccnc32)c2ccccc21
> 10 µM	Nc1noc2cccc(-c3cccc(O)c3)c12
> 10 µM	Cc1ccccc1NC(=O)Nc1ccc2c(c1)CCc1sc3ncnc(N)c3c1-2
> 10 µM	COCCNc1nccc(-c2c(-c3ccc(F)cc3)nc3cnccn23)n1
> 10 µM	O=C(Nc1cccc(C(F)(F)F)n1)Nc1ccnc2c(C(F)(F)F)cccc12
> 10 µM	O=c1[nH]c2sccc2c2nc(-c3ccncc3)nn12
5.01 µM	Nc1n[nH]c2cccc(-c3ccc(Br)cc3)c12
> 10 µM	O=C(N/N=C/c1ccc(Sc2nc3ccccc3[nH]2)o1)c1cccc([N+](=O)[O-])c1
> 10 µM	Cc1nn(-c2ccccc2)c2c1c(=O)c1cc(Cl)ccc1n2O
> 10 µM	OCCCn1cnc(-c2ccccc2)c1-c1ccncc1
0.2 µM	O=C(O)c1ccccc1Nc1ccnc(Nc2ccc3cn[nH]c3c2)n1
> 10 µM	Cc1n[nH]c2cccc(-c3ccc(NC(=O)Nc4cccc(C(F)(F)F)c4)cc3)c12
0.501 µM	O=C(O)c1ccccc1Nc1ccnc(Nc2ccc3[nH]ncc3c2)n1
> 10 µM	COc1ccc2c(NC(=O)Nc3cc(C(F)(F)F)ccn3)ccnc2c1
0.0158 µM	O=C1Nc2ccc3ncsc3c2/C1=C/Nc1ccc(S(=O)(=O)Nc2ccccn2)cc1
> 10 µM	CCNNc1cc(C)c(C#N)c2nc3ccccc3n12
> 6.31 µM	c1ccc(CNc2nc(-c3ccc4[nH]ncc4c3)cs2)cc1
3.16 µM	Cc1ccc(Cn2cc(-c3ccc4[nH]ncc4c3)nn2)c(C)c1
1.58 µM	c1ccc(Cc2cc(-c3ccc4[nH]ncc4c3)on2)cc1
> 10 µM	O=C(NCc1ccc(Cl)cc1)Nc1cccc2[nH]ncc12
> 10 µM	O=C(Nc1cccc(C(F)(F)F)n1)Nc1ccnc2c(Cl)c(Cl)ccc12
> 10 µM	CC1=NN(c2cccc(Br)c2)C(=O)/C1=C/c1c(C)c(C#N)c2nc3ccccc3n2c1O
> 10 µM	CC(C)(C)c1n[nH]c2c1C(c1ccccc1F)C(C#N)=C(N)O2 (stereo unspecified)
> 10 µM	O=C(O)c1ccc(N2C(=O)c3ccccc3C2=O)cc1O
1.26 µM	CC(C)(C)c1ccc2nc(-c3n[nH]c4ccccc34)[nH]c2c1
> 10 µM	CC(C)Cn1c(N)nc2ccc(-c3c(-c4ccc(F)cc4)nc4sccn34)cc21
> 6.31 µM	CC(C)(C)n1nc(-c2ccc(Cl)cc2)c2c(N)ncnc21
> 10 µM	CC(C)(O)Cc1nnc2ccc(-c3c(-c4ccc(F)cc4F)nc4occn34)nn12
> 10 µM	Cc1nccn2c(-c3ccnc(NCC(C)(C)CO)n3)c(-c3ccc(F)cc3F)nc12
